According to patent US20250326807A1, “CALPROTECTIN BINDING PEPTIDES” (Buehlmann Laboratories AG, priority 2022, published 2025):
Like-named read-outs stand apart in the source and are kept apart here. Ends that are not written are not given here.

Legend:
[1] = test system: human recombinant calprotectin; experiment: Fluorescence polarization affinity measurement of fluorescein-labelled peptides; format: binding
Method: The reaction mixture was incubated at 30° C. for 1 hr, and the completion of the reaction was assessed by LCMS. The reaction was stopped by addition of HCOOH (200 μL) and the cyclized peptide was lyophilized. The final purification was performed as before with a reversed-phase C18 column (X-bridge peptide BEH C18 5 μm, 300 Å, 10×250 mm, Waters) applying a flow rate of 6 mL/min and an appropriate linear gradient in 40 min. Fractions containing the desired peptide were lyophilized. The purity of the peptides was assessed by analysing around 20 μg of peptide by RP-HPLC (1260 HPLC system, Agilent) using a C18 column (ZORBAX 300SB-C18, 5 μm, 300 Å, 4.6×250 mm, Agilent). Peptides were run at a flow rate of 1 mL min^−1 with a linear gradient of 0-100% of solvent B over 15 min (A: 94.9% H2O, 5% ACN and 0.1% TFA; B: 99.9% ACN and 0.1% TFA). The mass was determined by electrospray ionization mass spectrometry (ESI-MS) in positive ion mode on a single quadrupole liquid chromatography mass spectrometer (LCMS-2020, Shimadzu). In order to measure the affinity of selected and synthesized peptides in fluorescence polarization, calprotectin was serially diluted in 20 mM HEPES, 100 mM NaCl, 2 mM CaCl2, pH 7.5, 1 mM DTT with 0.01% v/v Tween-20. 16 μL of protein were added to 4 μL of the fluorescent peptide (20 nM final concentration) in 96-well microtiter plates (black, half-area). Fluorescence anisotropy was measured on a microwell plate reader (Infinite M200Pro, Tecan), with a filter for excitation at 485 nm and emission at 535 nm. Dissociation constant (Kd) was calculated using the following equation on Prism 5 (GraphPad): […]
were A is anisotropy, Af and Ab are the anisotropy values for free and bound ligand, respectively. [L]T is the concentration of total fluorescent ligand and [P]T the concentration of the protein.
Subsequent fluorescence polarization experiments were performed according to example 1.

Calprotectin [2] = experiment: Surface plasmon resonance (Biacore 8K) with immobilized Calprotectin; format: binding, human; details: highest concentration tested (500 nM)
Method: In order to complement and validate the results obtained by FP, binding responses and kinetics of peptides with immobilized Calprotectin were analysed by SPR. The experiments were performed using a Biacore™ 8K instrument (GE Healthcare). Calprotectin (at 5 μg/mL) was dissolved in 10 mM acetate buffer (pH 5.0) and immobilized on a CM5 series S chip by standard amine coupling method in running buffer (10 mM HEPES pH 7.4, 150 mM NaCl, 2 mM CaCl2, and 0.005% v/v Tween-20) at 25° C. Typical immobilization levels were 3000 resonance units (RUs). Reference cell was treated in the same way but without the injection of protein. A single concentration for each peptide (500 nM) was injected in running buffer (10 mM HEPES pH 7.4, 150 mM NaCl, 2 mM CaCl2, 0.005% v/v Tween-20 and 0.5% v/v DMSO) to measure the binding level. For the measurement of binding kinetics and dissociation constants, five serial dilutions (3-fold) of peptides were prepared in running buffer (with 0.5% DMSO) and analysed in single cycle kinetics mode with the contact and dissociation times of 90 s and 120 s, respectively.
The structure-activity relationship (SAR) analysis of Peptide 3 was assessed by synthesizing a large number of variants of Peptide 3 in which only one amino acid was altered at a time and the binding affinity was measured by surface plasmon resonance (SPR) and fluorescence polarization (FP).

Calprotectin [3] = target: T1, Calprotectin (Homo sapiens, UniProt P05109+P06702); experiment: Sandwich ELISA with biotinylated calprotectin binding peptide and Strep-HRP; details: incubation times of 60 minutes
T1 sequence (P05109 1-93): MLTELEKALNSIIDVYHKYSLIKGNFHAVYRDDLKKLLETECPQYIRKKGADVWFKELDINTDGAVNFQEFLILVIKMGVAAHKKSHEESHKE
T1 sequence (P06702 1-114): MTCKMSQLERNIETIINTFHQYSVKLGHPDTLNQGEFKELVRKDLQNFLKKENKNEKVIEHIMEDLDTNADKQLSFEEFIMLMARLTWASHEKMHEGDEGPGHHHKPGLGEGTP
Method: The wells of 96 well Immulon 4 HBX-Extra High Binding plates (Thermo Fisher Scientific) were coated by overnight incubation at 4° C. with 80 μL of a 0.5 μg/mL solution of anti-calprotectin rabbit polyclonal antibody in Na2HCO3 (0.2 M, pH 9.4). The plates were rinsed four times with 200 μL of washing buffer (25 mM Tris, 150 mM NaCl, 2 mM CaCl2, PH 7.4, with 0.05% v/v Tween-20) per well. Then, all the wells were blocked by incubation with 300 μL of blocking buffer (25 mM Tris, 150 mM NaCl, pH 7.4, with 0.05% v/v Tween-20 and 3% w/v BSA) for 1 h at room temperature with shaking. After this time, the blocking buffer was removed and 80 μL of calprotectin was added in dilution buffer (wash buffer with 1% w/v BSA) for 1h at room temperature with shaking. The wells were washed 4 times with washing buffer. […] The solution was removed and the wells were washed 6times with washing buffer. 80 μL of TMB substrate (ready to use solution, SigmaAldrich) were added for 30 minutes and the reaction was stopped with 40 μL of sulfuric acid (2 M). The absorbance was read at 450 nm in a microwell plate reader (Infinite M200Pro, Tecan).

Row | Substance | affinity to recombinant calprotectin (in words) [1] | also measured
1 | VCPCPLFRAHGCSRFSCQ (not fully specified; cyclised or stapled) | excellent binding affinity | 
2 | ACRTCPLFTCPSCG (not fully specified; cyclised or stapled) | excellent binding affinity | 
3 | VCQQTASRCPVWECQRCP (not fully specified; cyclised or stapled) | excellent binding affinity | 
4 | SCQCPWDLFSQHSLSDCCD (cyclised or stapled) | excellent binding affinity | 
5 | RCPECVAFPMFQCHWYCG [peptide 3] | excellent binding affinity | SPR signal change (Calprotectin [2]): ~40 response units
6 | CTQSPCPLYDSHQCSCK (cyclised or stapled) | excellent binding affinity | 
7 | CQCPWDLFSQHSLSDCCD (cyclised or stapled) | excellent binding affinity | 
8 | WCTQSPCPLYDSHQCSCK (not fully specified; cyclised or stapled) | excellent binding affinity | 
9 | GCDLAHQPCPLYKCTKCP (cyclised or stapled) | excellent binding affinity | 
10 | Strep-HRP biotinylated peptide complex: linear peptide 3-biotin pre-mixed with streptavidin conjugated horse radish peroxidase (RSPESVAFPMFQSHWYSG; also: biotin, end not given here, non-covalent complex with streptavidin-HRP) |  | detectable calprotectin concentration (Calprotectin [3]): below 5 nM
11 | RSPESVAFPMFQSHWYSG [linear peptide 3, fully linear peptide comprising only serines instead of cysteines] |  | affinity to recombinant calprotectin (in words) ([1]; listed as RSPESVAFPMFQSHWYSG): excellent binding affinity; affinity to recombinant calprotectin (in words) ([1]; listed as fully linear peptide): comparable affinities
12 | TCPLNRTQCPLYACTTCP (not fully specified; cyclised or stapled) | excellent binding affinity | 
